# Results from US8389677B2, “Antioxidant polypeptide and a process for isolation and purification of the same” (Adichunchanagiri Biotechnology and Cancer Research Institute, priority 2010, dated 2013).
# What was measured:
# [1] = tested on: lipid peroxidation; experiment: Thio Barbituric Acid Reactive Substance (TBARS) antioxidant assay; assay type: biochemical; settings: concentration 400 μM
# Description: (§1) ATE containing 2 mg protein was loaded on to the Sephadex G-50 column (VT=240 ml, VO=80 ml) and eluted with 0.1M Tris HCl, pH −7.4 containing 0.1 M NaCl and flow rate was 1.7 ml/5 min, Fractions were monitored at 280 nm. Two peaks were obtained namely Peak I and Peak II. Peak II depicts the polypeptide of the present invention (Arishinin) as shown in FIG. 1 and the Gel filtration chromatography profile of Aqueous Turmeric Extract. Peak II was pooled, concentrated and dialyzed against double distilled water at 4° C. using 2 KDa cut off dialysis membrane for 74 hrs. […] The antioxidant activity was done by TBARS and Hydroxy radical scavenging assay compared to standard antioxidant like BHA, Curcumin and α-tocopherol as positive controls. Cell viability test by Tryphan blue exclusion method was done to test the toxicity of Arishinin.
# (§2) The quantification of water-soluble antioxidant polypeptide Arishinin, isolated by the process described in Examples 1 to 4 (as depicted in Table 1 above) was determined by the following methods. Protein estimation was done by Bradford's method (Bradford, M. M., 1976, Analytical Biochem., […]) with an absorption maximum at 595 nm and results shown in Table 1. The antioxidant activity of Arishinin was evaluated by Thio Barbituric Acid Reactive Substance (TBARS) (Shimasaki, H., et al., 1984, Biochem. Biophys. Acta, 792:123-129) and Deoxyribose method/Hydroxyl radical scavenging assay (Halliwell, B., et al., 1981, Methods of Biochemical Sciences, 33:59-90) with absorption maximum at 535 nm by using BHA, alpha tocopherol and Curcumin as standard antioxidants.
# [2] = tested on: hydroxyl radical; experiment: Deoxyribose method / Hydroxyl radical scavenging assay; assay type: biochemical; settings: concentration 400 μM
# Description: as §1, §2
# [3] = tested on: mice; settings: at more than 0.1% dose; cited from earlier work
Structure (SMILES),INHIBITION (%) TBARS [1] [%],INHIBITION (%) Hydroxyl radical [2] [%],carcinogenicity (fore-stomach tumour in mice) [3]
"COc1ccc(O)c(C(C)(C)C)c1 [BHA, Butylated Hydroxyl Anisole]",84 ± 1.5,80 ± 1,carcinogenic
"Cc1cc(C(C)(C)C)c(O)c(C(C)(C)C)c1 [BHT, Butylated Hydroxy Toluene]",–,–,carcinogenic
COc1cc(/C=C/C(=O)CC(=O)/C=C/c2ccc(O)c(OC)c2)ccc1O [Curcumin],72 ± 1.5,68 ± 3,–
Cc1c(C)c2c(c(C)c1O)CC[C@@](C)(CCC[C@H](C)CCC[C@H](C)CCCC(C)C)O2 [α-tocopherol],92 ± 1,88 ± 2,–
